Data reported in US20070142433A1, “Angiogenesis-affecting compounds and methods of use thereof” (priority 2004, published 2007).
Where a name gives a salt, the structure may show the parent alone.

Columns and labels:
[1] = test system: tumor size and vessel density; assay: Further studies with other CPT-1 inhibitors; conditions: CPT-1 inhibitors at 10 and 100 μm; FIGS. 37A-40
[2] = test system: HUVEC sprouting; assay: 3D angiogenesis assay of stimulators (HUVEC sprouting alone, with VEGF, with PTK787/ZK222584); type: cell-based, human; conditions: for HUVEC sprouting, compounds alone, compared to VEGF-induced sprouting: without addition of VEGF, 24 hours, basal sprouting subtracted, FIG. 22
Protocol: The HUVEC monolayer was treated for 6 hours with the compounds then the induced transcriptional changes, when compared to untreated HUVEC, were determined. The compounds were tested according to their ability to induce sprouting without addition of VEGF, in combination with VEGF and together with the VEGFR-2 inhibitor PTK787/ZK222584 (1 μM).

[3] = test system: HUVEC sprouting; assay: Spheroid-based 3D angiogenesis assay (IC50, alone or with VEGFR-2 inhibitor); type: cell-based, human; conditions: determined in the spheroid-based 3D assay (FIG. 10); read-out: IC50 of the VEGFR-2 inhibitors
Excerpt: Therefore, the assay was applied to test compounds alone or in combination with a VEGFR-2 inhibitor to address changes in IC50. […] The VEGFR-2 inhibitor was applied at a concentration close to the IC50.

[4] = test system: Alexander cells (PLC/PRF/5) subcutaneous tumor; assay: Hepato-Cellular Carcinoma Model (HCC) in vivo study, subcutaneous Alexander cells; design: species or system NMRI nu/nu mice; conditions: subcutaneous Alexander cell tumors in mice, about 21 days of treatment; FIGS. 28-30
Protocol: Monolayers of Alexander cells can be grown in 85% Dulbecco's Modified Eagle's Medium (DMEM), 15% Fetal Bovine Serum (FBS), 4 mM L-glutamine, 100 units penicillinG/ml, and 100 μg of streptomycin-sulfate/ml. The cells can be cultured in a humidified atmosphere of 90% air and 10% carbon dioxide at 37° C. Media may preferably be changed every 4 days.
Six to eight week old female NMRI^−nu/nu mice could be utilized. The Alexander cells can be implanted in the left flank region of the mice, for example, by injecting 4×10^7 cells in 0.2 ml aliquots into the subcutaneous space of the left flank using a 29 G needle syringe. After inoculation the appearing subcutaneous tumours can be measured by callipering and multiplying the distances of all three dimensions.
Therapy can be initiated after the tumor size has reached a volume of approximately 100 mm^3 (day 1 of the study), and continue for about 21 days.
As shown, Group 1 would serve as control, where the animals would receive no further treatment after injection of Alexander cells.
After approximately 21 days of treatment, mice could be sacrificed and tumors collected and optionally stored appropriately at −80° C. For histological examination of the tumor vasculature, cryosections of the tissues (thickness of 5-10 μm) can be taken. For visualization of the blood vessels, immunohistochemical staining for CD 31 (PECAM-1) can be performed, and vessels counted microscopically using a defined magnification (×200).

[5] = test system: angiogenesis induced by vascular permeability factor/vascular endothelial growth factor; conditions: Basu S et al., Nat Med 2001; cited from earlier work
[6] = test system: HUVEC sprouting; assay: Primary angiogenesis screen, HUVEC spheroid evaluation (EC sprouting); type: cell-based, human; conditions: HUVEC spheroids in collagen gel, VEGF-supplemented, 24 hours
Protocol: A test substance was selected for evaluation in angiogenesis screens. The test substance was synthesized or obtained as appropriate and stored at −20° C. in DMSO. Prior to use, the test substance was thawed and 5 mM of the substance was diluted to a 10 fold concentrated working solution (100 μM) in endothelial cell basal medium. The basal medium fraction was supplemented with 25 ng VEGF/100 μl for the stimulation of HUVEC sprouting.
The screening procedures were modified versions of those described by Korff and Augustin (J Cell Sci 112: 3249-58, 1999). By way of summary, spheroids were prepared by pipetting 400 human umbilical vein endothelial cells (HUVEC) into each well of nonadhesive 96-well plates. Prior to use the HUVEC were cultured according to the supplier's instructions (PromoCell, Heidelberg, Germany). The cells were allowed to aggregate overnight into spheroids (Korff and Augustin: J Cell Biol 143: 1341-52, 1998). After aggregation, 48 HUVEC spheriods were harvested. Each harvested spheroid was seeded in 900 μl of methocel-collagen solution and pipetted into an individual well of a 24-well plate to allow collagen gel polymerization.
(§1) Thirty (30) minutes after seeding, the test substance was added. The working dilution (10 fold concentration) was utilized, 100 μl was pipetted on top of the polymerized collagen gel in each well. The plates were then incubated at 37° C. for 24 hours. At the end of the incubation period the plates were fixed by adding 1 ml paraformaldehyde (10%) to each well.
The HUVEC spheriods were microscopically assayed for endothelial cell (EC) sprouting intensity. The degree of EC sprouting was classified into one of four groups by comparing the degree of sprouting to that observed in VEGF control cells. […] For exemplary results, see FIG. 1.

[7] = test system: A375; assay: Cell proliferation assay (crystal violet), A375; type: cell-based; conditions: Homo sapiens, A-375, 72 hours, OD 595 nm
Protocol: (§2) In order to further confirm the surprising results described above, the compounds were tested in a cell proliferation assay. Crystal violet was used to measure cell proliferation; this basic dye stains cell nuclei and provides a sensitive, rapid evaluation. Light absorption of unstained or destained cell layers is negligible, making it possible to perform cell number measurements in wells. Six cell types (HUVEC, HDMEC, SMC, Fibroblast, A375 and RENCA) were plated and treated with the compounds in a log2 titration for 72 hours. The optimal cell number for each cell type was determined and optical density (OD) was measured at 595 nm. Each data point was measured in quadruplicate. The assay was stopped after 72 hours and subsequently analyzed. The OD-value of the plated cells before addition of the compounds was subtracted from all OD-values obtained after treatment. The percentage in relation to control proliferation was then calculated. Negative values therefore represent a count of fewer cells than were plated. The IC50 is given below in Table 1. Results are shown as a percentage in relation to the control proliferation. The IC50 were calculated using GraphPad Prism software (GraphPad Software, Inc.). Perhexiline results are depicted graphically in FIGS. 4A-4C and Erythromycin results in FIGS. 5A-5C.

[8] = test system: NHDF (human dermal fibroblasts) scattering; assay: NHDF spheroid evaluation (fibroblast scattering); type: cell-based; conditions: NHDF spheroids in collagen gel, no supplements, 24 hours
Protocol: Where the test compound was classified as an inhibitor or stimulator, a second screening process was performed. In the second screen, the test substance was thawed and 5 mM of the substance was diluted to a 10 fold concentrated working solution (100 μM) in endothelial cell basal medium. No supplements were used in the basal medium.
Instead of HUVEC, spheroids were prepared by pipetting 400 human dermal fibroblasts (NHDF) into each well of nonadhesive 96-well plates. Prior to use the NHDF were cultured according to the supplier's instructions (PromoCell, Heidelberg, Germany). The cells were allowed to aggregate overnight into spheroids (Korff and Augustin: J Cell Biol 143: 1341-52, 1998). After aggregation, 48 NHDF spheroids were harvested. Each of the harvested spheroids was seeded in 900 μl of methocel-collagen solution and pipetted into an individual well of a 24-well plate to allow collagen gel polymerization.
as §1
The NHDF spheroids were microscopically assayed for fibroblast scattering intensity. […] For exemplary results, see FIG. 1.

[9] = test system: B16F10 cells; assay: Cell viability of B16F10 cells; type: cell-based; conditions: Mus musculus, B16-F10; after 24 and 48 hours incubation
Protocol: A cell viability assay based on cellular reduction of resazurin to the fluorescent product resorufin was performed. Viable cells can metabolize and reduce the dye, whereas dead cells rapidly lose the capacity to do so, making the increase in fluorescence directly proportional to the number of viable cells. The tested compounds were added in a log2 titration and viable cells were analyzed 24 hours after treatment. The fluorescence was determined at an excitation wavelength of 560 nm and an emission wavelength of 590 nm. The percentage of viable cells in relation to the untreated control proliferation was calculated. […] Perhexiline results are depicted graphically in FIGS. 6A-6C and Erythromycin results in FIGS. 7A-7C.
Through the two aforementioned assays it was determined that RENCA cells are more sensitive when treated with Perhexiline than the other cell types in the proliferation assay and in the viability assay. Therefore, the B16F10 cells were subsequently tested. The B16F10 tumor model, like the RENCA model, is an orthotopic tumor model.

[10] = test system: Fibroblast; assay: Cell proliferation assay (crystal violet), Fibroblast; type: cell-based; conditions: 72 hours, OD 595 nm
Protocol: as §2

[11] = test system: SMC; assay: Cell proliferation assay (crystal violet), SMC; type: cell-based; conditions: 72 hours, OD 595 nm
Protocol: as §2

[12] = test system: HDMEC; assay: Cell proliferation assay (crystal violet), HDMEC; type: cell-based; conditions: 72 hours, OD 595 nm
Protocol: as §2

[13] = test system: RENCA; assay: Cell proliferation assay (crystal violet), RENCA; type: cell-based; conditions: 72 hours, OD 595 nm
Protocol: as §2

[14] = test system: HUVEC; assay: Cell proliferation assay (crystal violet), HUVEC; type: cell-based; conditions: Homo sapiens, 72 hours, OD 595 nm
Protocol: In order to further confirm the surprising results described above, the compounds were tested in a cell proliferation assay. Crystal violet was used to measure cell proliferation; this basic dye stains cell nuclei and provides a sensitive, rapid evaluation. Light absorption of unstained or destained cell layers is negligible, making it possible to perform cell number measurements in wells.
Six cell types (HUVEC, HDMEC, SMC, Fibroblast, A375 and RENCA) were plated and treated with the compounds in a log2 titration for 72 hours. The optimal cell number for each cell type was determined and optical density (OD) was measured at 595 nm. Each data point was measured in quadruplicate. The assay was stopped after 72 hours and subsequently analyzed.
The OD-value of the plated cells before addition of the compounds was subtracted from all OD-values obtained after treatment. The percentage in relation to control proliferation was then calculated. Negative values therefore represent a count of fewer cells than were plated. The IC50 is given below in Table 1. Results are shown as a percentage in relation to the control proliferation. The IC50 were calculated using GraphPad Prism software (GraphPad Software, Inc.). Perhexiline results are depicted graphically in FIGS. 4A-4C and Erythromycin results in FIGS. 5A-5C. […]

## CC(C)(COP(=O)(O)OP(=O)(O)OC[C@H]1O[C@@H](n2cnc3c(N)ncnc32)[C@H](O)[C@@H]1OP(=O)(O)O)[C@@H](O)C(=O)NCCC(=O)NCCSC(=O)CC(=O)O [Malonyl-CoA]
[1]
  effects on tumor size and vessel density (as seen with Perhexiline): not seen

## Clc1ccc(Nc2nnc(Cc3ccncc3)c3ccccc23)cc1 [PTK787/ZK222584]
[2]; at a concentration of 1 μM
  VEGF-induced sprouting: completely prevents VEGF-induced sprouting
[3]
  IC50: 0.1 µM
[4]
  tumor growth compared to control: reduced

## CCc1cc(Cl)c(OC)c(C(=O)NC[C@@H]2CCCN2CC)c1O [Eticlopride]
[2]
  HUVEC sprouting, compounds alone, compared to VEGF-induced sprouting: stimulated sprouting in excess of the VEGF-induced sprouting
[5]
  effect on angiogenesis (literature): not effect on angiogenesis

## Clc1ccc(CSC(Cn2ccnc2)c2ccc(Cl)cc2Cl)cc1 (racemic) [Sulconazole, (±)-1-[2.4-dichloro-b-[(p-chlorobenzyl)-thio]-phenethyl]imidazole mononitrate]
[6]
  EC sprouting intensity compared with VEGF control: angiogenesis stimulators

## CC[C@H]1OC(=O)[C@H](C)[C@@H](O[C@H]2C[C@@](C)(OC)[C@@H](O)[C@H](C)O2)[C@H](C)[C@@H](O[C@@H]2O[C@H](C)C[C@H](N(C)C)[C@H]2O)[C@](C)(O)C[C@@H](C)C(=O)[C@H](C)[C@@H](O)[C@]1(C)O [Erythromycin]
[7]
  IC50: > 100 µM
[8]
  fibroblast scattering (invasion) effect: no fibroblast invasion effect
[9]
  IC50: 10 µM
[10]
  IC50: > 100 µM
[6]
  EC sprouting intensity compared with VEGF control: sprouting inhibition
[11]
  IC50: > 100 µM
[12]
  IC50: ~100 µM
[13]
  IC50: 56 µM
[14]
  IC50: > 100 µM

## C#C[C@]1(O)CC[C@H]2[C@@H]3CCC4=Cc5oncc5C[C@]4(C)[C@H]3CC[C@@]21C [Danazol]
[8]
  fibroblast scattering (invasion) effect: no fibroblast invasion effect
[6]
  EC sprouting intensity compared with VEGF control: increased sprouting stimulation

## Clc1ccc(COC(Cn2ccnc2)c2ccc(Cl)cc2Cl)cc1.O=[N+]([O-])O (centres unmarked) [Econazole, 1-[2-{(4-chloro-phenyl)methoxy}-2-(2,4-dichlorophenyl)ethyl]-1H-imidazole mononitrate]
[6]
  EC sprouting intensity compared with VEGF control: angiogenesis stimulators

## CCOC(=O)[C@@]1(CCCCCCOc2ccc(Cl)cc2)CO1 [Etomoxir]
[1]
  effects on tumor size and vessel density (as seen with Perhexiline): not seen

## CCN(CC)C(=O)N[C@H]1C=C2c3cccc4[nH]cc(c34)C[C@H]2N(C)C1 [Lisuride (S)(−)]
[8]
  fibroblast scattering (invasion) effect: no fibroblast invasion effect
[6]
  EC sprouting intensity compared with VEGF control: increased sprouting stimulation

## Clc1ccc(COC(Cn2ccnc2)c2ccc(Cl)cc2Cl)c(Cl)c1 (centres unmarked) [Miconazole]
[8]
  fibroblast scattering (invasion) effect: no fibroblast invasion effect
[6]
  EC sprouting intensity compared with VEGF control: increased sprouting stimulation

## NCCc1ccc(O)c(O)c1 [Dopamine]
[5]
  effect on angiogenesis (literature): prevent angiogenesis

## CC(C)C[C@H]1C(=O)N2CCC[C@H]2[C@]2(O)O[C@](NC(=O)[C@@H]3C=C4c5cccc6[nH]c(Br)c(c56)C[C@H]4N(C)C3)(C(C)C)C(=O)N12 [Bromocriptine, Bromocriptine mesylate]
[2]
  HUVEC sprouting, compounds alone, compared to VEGF-induced sprouting: stimulated sprouting in excess of the VEGF-induced sprouting
[5]
  effect on angiogenesis (literature): prevent angiogenesis
[6]
  EC sprouting intensity compared with VEGF control: angiogenesis stimulator

## COc1ccc(CN2CCNCC2)c(OC)c1OC [Trimetazidine dihydrochloride]
[1]
  effects on tumor size and vessel density (as seen with Perhexiline): not seen
